In PubChem BioAssay AID330 (DTP/NCI, 2004):
Where “and” joins values, the source holds several entries; their conditions need not be identical. Equal values may be shown once. Inconclusive results and toxic doses are left out. Rule for the calls: active = survival T/C of 150% or more; inactive = T/C below 125% in these data.

System: P388 leukemia ip, CD2F1 mice, survival T/C
Test: NCI In Vivo Anticancer Drug Screen. Data for tumor model P388 Leukemia (intraperitoneal) in CD2F1 (CDF1) mice
Conditions: endpoint: median survival time, higher = longer survival
Summary of the method: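 Mice carrying the transplanted tumor received test compound or vehicle. Survival was recorded in each group, and the value is the treated-group measurement divided by that of the vehicle-treated control group.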

[1] = dose: 6.25 mg/kg/injection, schedule: Q01DX009 (ip), vehicle: saline
[2] = dose: 12.5 mg/kg/injection, schedule: Q01DX009 (ip), vehicle: saline
[3] = dose: 25.0 mg/kg/injection, schedule: Q01DX009 (ip), vehicle: saline
[4] = dose: 50.0 mg/kg/injection, schedule: Q01DX009 (ip), vehicle: Klucel (hydroxypropylcellulose) (HPC)
[5] = dose: 50.0 mg/kg/injection, schedule: Q01DX009 (ip), vehicle: saline
[6] = dose: 100.0 mg/kg/injection, schedule: Q01DX009 (ip), vehicle: Klucel (hydroxypropylcellulose) (HPC)
[7] = dose: 100.0 mg/kg/injection, schedule: Q01DX009 (ip), vehicle: saline
[8] = dose: 200.0 mg/kg/injection, schedule: Q01DX009 (ip), vehicle: Klucel (hydroxypropylcellulose) (HPC)
[9] = dose: 6.25 mg/kg/injection, schedule: Q01DX005 (ip), vehicle: saline with Tween-80
[10] = dose: 12.5 mg/kg/injection, schedule: Q01DX009 (ip), vehicle: other
[11] = dose: 25.0 mg/kg/injection, schedule: Q01DX009 (ip), vehicle: other
[12] = dose: 50.0 mg/kg/injection, schedule: Q01DX009 (ip), vehicle: other
[13] = dose: 200.0 mg/kg/injection, schedule: Q01DX005 (ip), vehicle: saline with Tween-80
[14] = dose: 50.0 mg/kg/injection, schedule: Q01DX009 (ip), vehicle: saline with Tween-80
[15] = dose: 200.0 mg/kg/injection, schedule: Q01DX009 (ip), vehicle: saline

Measured: T/C

CS(=O)(=O)Oc1ccc[nH]c1=O
inactive: [1] 110 % of control | dose: 12.5 mg/kg/injection, schedule: Q01DX009 (ip), vehicle: Klucel (hydroxypropylcellulose) (HPC) 93 % of control | [2] 121 % of control | dose: 25.0 mg/kg/injection, schedule: Q01DX009 (ip), vehicle: Klucel (hydroxypropylcellulose) (HPC) 103 % of control | [3] 115 % of control | [4] 104 % of control | [5] 118 % of control | [6] 97 % of control | [7] 109 % of control | [8] 98 % of control | dose: 400.0 mg/kg/injection, schedule: Q01DX009 (ip), vehicle: Klucel (hydroxypropylcellulose) (HPC) 97 % of control

Cc1cc(O)c2c(c1)C(=O)c1cc(O)cc(OC3OC(CO)C(O)C(O)C3O)c1C2=O (stereo unspecified)
inactive: dose: 5.0 mg/kg/injection, schedule: Q01DX009 (ip), vehicle: saline 105 % of control | dose: 10.0 mg/kg/injection, schedule: Q01DX009 (ip), vehicle: saline 105 % of control | dose: 20.0 mg/kg/injection, schedule: Q01DX009 (ip), vehicle: saline 89 % of control

CC(=O)NC#N.CCN(CC)CC.[CH-]1CCCCC1.[CH-]1CCCCC1.[CH-]1CCCCC1.[Cl-].[Sn+4]
inactive: dose: 3.12 mg/kg/injection, schedule: Q01DX005 (ip), vehicle: saline with Tween-80 106 % of control | [9] 105 % of control

COc1cccc2c1C(=O)c1c(O)c3c(c(O)c1C2=O)CC(O)(c1csc(N)n1)CC3O (stereo unspecified)
inactive: dose: 1.56 mg/kg/injection, schedule: Q01DX009 (ip), vehicle: other 100 % of control | dose: 3.13 mg/kg/injection, schedule: Q01DX009 (ip), vehicle: other 107 % of control | dose: 6.25 mg/kg/injection, schedule: Q01DX009 (ip), vehicle: other 101 % of control | [10] 108 % of control | [11] 107 % of control | [12] 108 % of control

Cc1cc(C(=O)NC(C)c2ccc(S(=O)(=O)NC(=O)NC3CCCCC3)cc2)no1 (stereo unspecified)
inactive: dose: 50.0 mg/kg/injection, schedule: Q04DX002 (ip), vehicle: Klucel (hydroxypropylcellulose) (HPC) 99 % of control | dose: 100.0 mg/kg/injection, schedule: Q04DX002 (ip), vehicle: Klucel (hydroxypropylcellulose) (HPC) 100 % of control | dose: 200.0 mg/kg/injection, schedule: Q04DX002 (ip), vehicle: Klucel (hydroxypropylcellulose) (HPC) 97 % of control

O=S1(=O)C2CCC(Br)C1CCC2Br (stereo unspecified)
inactive: dose: 1.56 mg/kg/injection, schedule: Q01DX005 (ip), vehicle: Klucel (hydroxypropylcellulose) (HPC) 99 % of control | dose: 3.12 mg/kg/injection, schedule: Q01DX005 (ip), vehicle: Klucel (hydroxypropylcellulose) (HPC) 103 % of control | dose: 6.25 mg/kg/injection, schedule: Q01DX005 (ip), vehicle: Klucel (hydroxypropylcellulose) (HPC) 100 % of control

O=C1CN(c2cccc(Cl)c2)C(=O)CN1/N=C/c1ccco1
inactive: dose: 50.0 mg/kg/injection, schedule: Q01DX005 (ip), vehicle: saline with Tween-80 109 % of control | dose: 100.0 mg/kg/injection, schedule: Q01DX005 (ip), vehicle: saline with Tween-80 107 % of control | [13] 98 % of control

Cn1cnccc1=O
inactive: [1] 102 % of control | [2] 103 % of control | [3] 106 % of control | [5] 106 % of control | [7] 103 % of control

O=C1C(C(=NCCO)c2ccccc2)=C(O)c2ccccc21
inactive: dose: 25.0 mg/kg/injection, schedule: Q04DX002 (ip), vehicle: saline with Tween-80 90 % of control | dose: 50.0 mg/kg/injection, schedule: Q04DX002 (ip), vehicle: saline with Tween-80 101 % of control | dose: 100.0 mg/kg/injection, schedule: Q04DX002 (ip), vehicle: saline with Tween-80 89 % of control

CCN(CC)CCN=c1nc(/C=C\C=C\NN(C)C(=S)SC)c(C)nn1C
inactive: [9] 103 % of control | dose: 12.5 mg/kg/injection, schedule: Q01DX005 (ip), vehicle: saline with Tween-80 87 % of control | dose: 25.0 mg/kg/injection, schedule: Q01DX005 (ip), vehicle: saline with Tween-80 89 % of control | [13] 90 % of control

CCC(C)c1cnc(CC(C)C)c(=O)n1O (stereo unspecified)
inactive: dose: 6.25 mg/kg/injection, schedule: Q01DX009 (ip), vehicle: saline with Tween-80 90 % of control | dose: 12.5 mg/kg/injection, schedule: Q01DX009 (ip), vehicle: saline with Tween-80 91 % of control | dose: 25.0 mg/kg/injection, schedule: Q01DX009 (ip), vehicle: saline with Tween-80 94 % of control | [14] 100 % of control

NC(C/C=C\Cl)C(=O)O (stereo unspecified)
inactive: dose: 50.0 mg/kg/injection, schedule: Q01DX005 (ip), vehicle: Klucel (hydroxypropylcellulose) (HPC) 102 % of control | dose: 100.0 mg/kg/injection, schedule: Q01DX005 (ip), vehicle: Klucel (hydroxypropylcellulose) (HPC) 98 % of control | dose: 200.0 mg/kg/injection, schedule: Q01DX005 (ip), vehicle: Klucel (hydroxypropylcellulose) (HPC) 110 % of control

C1CSCCSCCSCCS1
inactive: dose: 100.0 mg/kg/injection, schedule: Q04DX003 (ip), vehicle: Klucel (hydroxypropylcellulose) (HPC) 100 % of control | dose: 200.0 mg/kg/injection, schedule: Q04DX003 (ip), vehicle: Klucel (hydroxypropylcellulose) (HPC) 100 % of control | dose: 400.0 mg/kg/injection, schedule: Q04DX003 (ip), vehicle: Klucel (hydroxypropylcellulose) (HPC) 101 % of control

COc1nccnn1
inactive: [5] 95 % of control | [7] 91 % of control | [15] 95 % of control | dose: 400.0 mg/kg/injection, schedule: Q01DX009 (ip), vehicle: saline 107 % of control

COc1cccc(OC)c1N(CCO)CCO
inactive: [14] 101 % of control | dose: 100.0 mg/kg/injection, schedule: Q01DX009 (ip), vehicle: saline with Tween-80 95 % of control | dose: 200.0 mg/kg/injection, schedule: Q01DX009 (ip), vehicle: saline with Tween-80 106 % of control

CN(C)Cc1cc(O)c(CN(C)C)cc1O
inactive: dose: 3.13 mg/kg/injection, schedule: Q01DX009 (ip), vehicle: saline + Tween-80 + alcohol 100 % of control | dose: 6.25 mg/kg/injection, schedule: Q01DX009 (ip), vehicle: saline + Tween-80 + alcohol 101 % of control and 111 % of control | [10] 123 % of control | dose: 12.5 mg/kg/injection, schedule: Q01DX009 (ip), vehicle: saline + Tween-80 + alcohol 102 % of control and 112 % of control | [11] 105 % of control | dose: 25.0 mg/kg/injection, schedule: Q01DX009 (ip), vehicle: saline + Tween-80 + alcohol 107 % of control and 109 % of control | [12] 105 % of control | dose: 100.0 mg/kg/injection, schedule: Q01DX009 (ip), vehicle: other 119 % of control

O=C1OCCOCCSCCOCCOC(=O)c2cncc1c2
inactive: dose: 100.0 mg/kg/injection, schedule: Q01DX001 (ip), vehicle: Klucel (hydroxypropylcellulose) (HPC) 104 % of control | dose: 200.0 mg/kg/injection, schedule: Q01DX001 (ip), vehicle: Klucel (hydroxypropylcellulose) (HPC) 104 % of control | dose: 400.0 mg/kg/injection, schedule: Q01DX001 (ip), vehicle: Klucel (hydroxypropylcellulose) (HPC) 101 % of control

CCCC(CCC)=NCCN=C(CCC)CCC
inactive: [5] 100 % of control | dose: 50.0 mg/kg/injection, schedule: Q04DX003 (ip), vehicle: saline 95 % of control | [7] 100 % of control | dose: 100.0 mg/kg/injection, schedule: Q04DX003 (ip), vehicle: saline 95 % of control | [15] 104 % of control | dose: 200.0 mg/kg/injection, schedule: Q04DX003 (ip), vehicle: saline 91 % of control

C#CC(O)C1CC1 (stereo unspecified)
inactive: dose: 100.0 mg/kg/injection, schedule: Q01DX001 (ip), vehicle: saline + Tween-80 + alcohol 101 % of control

CCC1CN2CCc3cc(OC)c(OC)cc3C2C(C2(O)C(=O)Nc3ccccc32)C1=O (stereo unspecified)
inactive: [4] 99 % of control | [6] 100 % of control | [8] 100 % of control
